What was measured:
[1] = target: T1, human TLR8 (wild type sequence) (Homo sapiens, UniProt Q9NR97); experiment: TLR8 cellular NFκB-luc reporter assay, wild type TLR8; format: cell-based; parameters: unit not given here; conditions: lowest effective concentration, wild type TLR8 (compounds 74 onward)
T1 construct: expressed in transfected cells; host or cells: HEK293
T1 sequence (Q9NR97 27-1041): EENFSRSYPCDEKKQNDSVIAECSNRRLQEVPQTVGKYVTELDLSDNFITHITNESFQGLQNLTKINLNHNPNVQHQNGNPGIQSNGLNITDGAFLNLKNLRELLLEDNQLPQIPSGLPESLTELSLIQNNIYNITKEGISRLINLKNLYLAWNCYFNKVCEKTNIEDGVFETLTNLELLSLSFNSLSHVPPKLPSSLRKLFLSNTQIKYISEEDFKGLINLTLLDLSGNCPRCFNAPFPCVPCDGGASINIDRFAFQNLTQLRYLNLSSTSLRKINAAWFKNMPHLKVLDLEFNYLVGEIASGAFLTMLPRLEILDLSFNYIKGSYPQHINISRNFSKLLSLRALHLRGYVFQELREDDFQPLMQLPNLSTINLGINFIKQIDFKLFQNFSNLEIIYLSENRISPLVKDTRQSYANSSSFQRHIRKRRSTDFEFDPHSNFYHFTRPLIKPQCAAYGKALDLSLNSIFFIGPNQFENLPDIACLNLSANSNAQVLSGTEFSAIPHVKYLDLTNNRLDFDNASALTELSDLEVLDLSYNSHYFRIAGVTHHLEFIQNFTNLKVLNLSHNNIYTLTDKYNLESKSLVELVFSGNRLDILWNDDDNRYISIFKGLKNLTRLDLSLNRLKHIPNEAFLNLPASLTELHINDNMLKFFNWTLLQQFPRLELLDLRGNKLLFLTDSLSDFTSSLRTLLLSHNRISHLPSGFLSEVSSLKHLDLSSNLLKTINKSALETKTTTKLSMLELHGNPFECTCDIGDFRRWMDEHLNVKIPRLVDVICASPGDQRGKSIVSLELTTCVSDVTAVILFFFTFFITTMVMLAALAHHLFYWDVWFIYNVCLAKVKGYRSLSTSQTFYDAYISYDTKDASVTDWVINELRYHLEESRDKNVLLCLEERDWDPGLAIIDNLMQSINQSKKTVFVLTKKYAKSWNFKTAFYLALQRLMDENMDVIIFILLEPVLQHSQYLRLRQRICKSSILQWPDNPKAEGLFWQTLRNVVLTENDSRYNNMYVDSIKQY
Method in brief: (§1)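 HEK293 cells transiently co-transfected (48 h, 37 °C) with CMV-TLR7 or TLR8 plasmid (wild type or second-LRR deletion mutant) plus NFκB-luc reporter. Cells exposed to compound for 6 h at 37 °C, 5% CO2; luciferase read-out. LEC from quadruplicate dose-response curves: concentration giving effect at least two fold above assay standard deviation.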

[2] = target: T2, human TLR7 (wild type sequence) (Homo sapiens, UniProt Q9NYK1); experiment: TLR7 cellular NFκB-luc reporter assay, wild type TLR7; format: cell-based; parameters: unit not given here; conditions: lowest effective concentration, wild type TLR7 (compounds 74 onward)
T2 construct: expressed in transfected cells; host or cells: HEK293
T2 sequence (Q9NYK1 27-1049): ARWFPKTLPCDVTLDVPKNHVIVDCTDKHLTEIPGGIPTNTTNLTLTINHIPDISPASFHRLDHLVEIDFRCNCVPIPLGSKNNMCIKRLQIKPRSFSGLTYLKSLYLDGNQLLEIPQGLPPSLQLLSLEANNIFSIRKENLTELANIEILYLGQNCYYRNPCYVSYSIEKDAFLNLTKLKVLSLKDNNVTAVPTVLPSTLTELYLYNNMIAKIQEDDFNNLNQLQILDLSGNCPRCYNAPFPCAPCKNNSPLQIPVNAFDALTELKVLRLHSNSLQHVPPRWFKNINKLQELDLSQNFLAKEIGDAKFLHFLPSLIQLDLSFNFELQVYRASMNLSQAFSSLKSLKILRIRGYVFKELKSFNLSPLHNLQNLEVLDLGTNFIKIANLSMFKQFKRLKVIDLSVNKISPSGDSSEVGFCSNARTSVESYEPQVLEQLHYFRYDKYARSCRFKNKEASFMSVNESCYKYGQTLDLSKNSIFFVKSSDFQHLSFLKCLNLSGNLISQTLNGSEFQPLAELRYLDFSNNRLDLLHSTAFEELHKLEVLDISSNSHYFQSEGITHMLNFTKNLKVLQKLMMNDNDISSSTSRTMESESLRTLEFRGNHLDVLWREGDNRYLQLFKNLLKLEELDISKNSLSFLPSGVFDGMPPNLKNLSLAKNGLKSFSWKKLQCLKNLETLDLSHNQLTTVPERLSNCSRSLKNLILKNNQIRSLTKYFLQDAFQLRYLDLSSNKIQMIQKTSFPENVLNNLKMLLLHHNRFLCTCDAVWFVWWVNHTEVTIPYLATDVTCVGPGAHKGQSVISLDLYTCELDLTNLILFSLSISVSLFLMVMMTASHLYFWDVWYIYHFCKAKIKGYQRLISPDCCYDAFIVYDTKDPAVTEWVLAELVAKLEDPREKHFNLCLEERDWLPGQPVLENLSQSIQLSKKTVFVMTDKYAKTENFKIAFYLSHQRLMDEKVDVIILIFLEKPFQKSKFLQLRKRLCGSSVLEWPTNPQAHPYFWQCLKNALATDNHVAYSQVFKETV
Method in brief: as §1

[3] = test system: HCV replicon in Huh-7 luc/neo cells; experiment: Suppression of HCV replicon replication by conditioned media from compound-treated PBMC; format: cell-based, HCV type 1 b; conditions: Hepatitis C virus; conditioned media from compound-treated PBMC on Huh-7 luc/neo replicon cells (compounds 74 onward); read-out: PBMC HUH-7 EC50
Method in brief: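 Human PBMC (≥2 donors, RPMI + 10% human AB serum, 2×10^5 cells/well) incubated overnight with compounds; supernatant transferred onto Huh-7 luc/neo HCV 1b replicon cells. After 24 h, replication read as luciferase activity. Recombinant interferon α-2a served as standard.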

Structure (SMILES) | TLR 8 wt LEC [1] | TLR 7 wt LEC [2] | EC50 [3]
CCCC(COC)Nc1nc(N)ncc1OC (stereo not drawn) [Compound 106] | 5.940 | 16.100 | 3150 nM
CCCCNc1nc(N)ncc1OCc1nc(-c2ccccc2)no1 [Compound 155] | 4.560 | 2.660 | 3440 nM
CCCCNc1nc(N)ncc1OCCOc1ccc(C(=O)OC)cc1OC [Compound 132] | >25 | 1.470 | 634 nM
CCCCNc1nc(N)ncc1OCCOc1cc(C(C)C)nc2cc(OC)ccc12 [Compound 142] | 2.370 | >25 | 19700 nM
CCCCNc1nc(N)ncc1OCc1cc2ccccc2n(CCC(C)C)c1=O [Compound 158] | >25 | 3.080 | 3310 nM
CCCCNc1nc(N)ncc1OCc1ccccn1 [Compound 101] | 0.597 | 0.277 | 55 nM
CCCCNc1nc(N)ncc1OCc1cccc(C)n1 [Compound 122] | 0.628 | 0.118 | 25 nM
CCCCNc1nc(N)ncc1OCCCc1ccc(OC)c(OC)c1OC [Compound 164] | 23.030 | 0.606 | 769 nM
CCCCNc1nc(N)ncc1OCCCc1ccc(OC)cc1OC [Compound 163] | 2.500 | 0.573 | 728 nM
CCCCNc1nc(N)ncc1OCc1cc(C)n(C)n1 [Compound 117] | 1.120 | 0.335 | 88 nM
CCCC[C@@H](CO)Nc1nc(N)ncc1OCCCc1ccccc1 [Compound 154] | 2.960 | 3.710 | 3020 nM
CCCCNc1nc(N)ncc1OCc1nccc(OCC(F)(F)F)c1C [Compound 139] | 0.286 | 0.025 | 9 nM
CCCCNc1nc(N)ncc1OCc1ccc(C(=O)OC)o1 [Compound 120] | 3.910 | 0.649 | 273 nM
CCCCNc1nc(N)ncc1OCCCc1cc(OC)ccc1OC [Compound 148] | 4.850 | 0.691 | 634 nM
CCCCNc1nc(N)ncc1OCCOc1ccncc1 [Compound 84] | 0.250 | 0.860 | 76 nM
CCCCNc1nc(N)ncc1OCCOc1ccnc2cc(OC)ccc12 [Compound 141] | 0.704 | 4.360 | 733 nM

Structure (SMILES) | TLR 8 wt LEC [1] | TLR 7 wt LEC [2] | EC50 [3]
CCCCNc1nc(N)ncc1OCCCc1ccc(Cl)c(Cl)c1 [Compound 169] | >25 | 5.110 | 3130 nM
CCCCNc1nc(N)ncc1OCC1CCCO1 (stereo not drawn) [Compound 100] | 6.160 | 18.950 | 5120 nM
CCCCNc1nc(N)ncc1O[C@@H](C)c1ccccc1 [Compound 99] | 1.820 | 8.980 | 1280 nM
CCCCNc1nc(N)ncc1OCc1ccc(F)cc1 [Compound 95] | 2.010 | 2.730 | 726 nM
CCCCNc1nc(N)ncc1OCc1ncccc1OC [Compound 179] | 0.142 | 0.078 | 21 nM
CCC[C@@H](CCO)Nc1nc(N)ncc1OCc1nccc(OC)c1OC [Compound 87] | 0.567 | 0.013 | 12 nM
CCCCNc1nc(N)ncc1OCCCc1ccc(OC)c(OC)c1 [Compound 74] | 1.720 | 0.713 | 157 nM
CCC[C@@H](CCO)Nc1nc(N)ncc1OCCCc1ccccc1 [Compound 165] | 1.800 | 0.683 | 187 nM
CCCC[C@H](Nc1nc(N)ncc1OCCCc1ccccc1)C(=O)OC [Compound 82] | 13.590 | 4.420 | 14000 nM
CCCCNc1nc(N)ncc1OCCCc1ccncc1 [Compound 177] | 0.819 | 0.795 | 197 nM
CCCC[C@@H](CCO)Nc1nc(N)ncc1OCc1ccc2ccccc2n1 [Compound 186] | 0.680 | 0.122 | 65 nM
CCCCNc1nc(N)ncc1OCc1cccc2cccnc12 [Compound 184] | 1.650 | 0.157 | 53 nM
CCCCNc1nc(N)ncc1OCCOc1cccc(OC)c1OC [Compound 130] | 6.560 | 0.676 | 103 nM
CCCCCNc1nc(N)ncc1OC(C)c1ccccc1 (stereo not drawn) [Compound 96] | 6.340 | >25 | 4310 nM
CCCC(CCC)Nc1nc(N)ncc1OCCCc1ccccc1 [Compound 114] | >25 | 2.020 | 2000 nM

From patent US11541050B2, “Pyrimidine derivatives for the treatment of viral infections” (JANSSEN SCIENCES IRELAND UC, priority 2011, dated 2023)
